Results reported in ChEMBL document CHEMBL1201862, “PubChem BioAssay data set” (2004).
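Values below derive from 48-hour exposures of cells grown in 96-well plates, with endpoints linearly interpolated between the two concentrations bracketing the appropriate inhibition level. At the GI50, growth is halved.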 Active and inactive are the calls of the source. No stated cut-off is given here; in the data, active = GI50 up to about 1.1 µM and inactive = higher.

Legend:
Experiment in all cases: NCI tumour cell line growth inhibition, 48 h
DU-145 = test system: DU-145
EKVX = test system: EKVX
HOP-92 = test system: HOP-92
K562 = test system: K562
M14 = test system: M14
Malme-3M = test system: Malme-3M
NCI-H460 = test system: NCI-H460
NCI/ADR-RES = test system: NCI/ADR-RES
OVCAR-5 = test system: OVCAR-5
OVCAR-8 = test system: OVCAR-8
RPMI-8226 = test system: RPMI-8226
RXF 393 = test system: RXF 393
SF-295 = test system: SF-295
SNB-75 = test system: SNB-75
SW-620 = test system: SW-620
HCT-116 = test system: HCT-116
SF-539 = test system: SF-539
SK-MEL-2 = test system: SK-MEL-2
SK-OV-3 = test system: SK-OV-3
UACC-62 = test system: UACC-62

Row | Compound | GI50 (DU-145) | GI50 (EKVX) | GI50 (HOP-92) | GI50 (K562) | GI50 (M14) | GI50 (Malme-3M) | GI50 (NCI-H460) | GI50 (NCI/ADR-RES) | GI50 (OVCAR-5) | GI50 (OVCAR-8) | GI50 (RPMI-8226) | GI50 (RXF 393) | GI50 (SF-295) | GI50 (SNB-75) | GI50 (SW-620) | GI50 (HCT-116) | GI50 (SF-539) | GI50 (SK-MEL-2) | GI50 (SK-OV-3) | GI50 (UACC-62)
1 | O=C1CC(C(OCc2ccccc2)C(OCc2ccccc2)C(OCc2ccccc2)C(COCc2ccccc2)OCc2ccccc2)CC(=O)N1 (stereo unspecified) | > 100 µM (inactive) | > 100 µM (inactive) | 18 µM (inactive) | > 100 µM (inactive) | > 100 µM (inactive) | > 100 µM (inactive) | > 100 µM (inactive) | > 100 µM (inactive) | > 100 µM (inactive) | > 100 µM (inactive) | > 100 µM (inactive) | 6.52 µM (inactive) | > 100 µM (inactive) | > 100 µM (inactive) | > 100 µM (inactive) | – | – | – | – | –
2 | NC1(c2cc3ccccc3s2)CCCCCC1 | 17.2 µM (inactive) | 18.7 µM (inactive) | 14 µM (inactive) | 10.1 µM (inactive) | 18.8 µM (inactive) | – | 15 µM (inactive) | 15 µM (inactive) | 15 µM (inactive) | 17.3 µM (inactive) | – | 12.7 µM (inactive) | 18.3 µM (inactive) | 11.1 µM (inactive) | 16.3 µM (inactive) | 16.1 µM (inactive) | 18 µM (inactive) | 10.4 µM (inactive) | 17.1 µM (inactive) | 18 µM (inactive)
3 | COC(=O)C1C2C=CC(C2)N1S(=O)(=O)c1ccccc1 (stereo unspecified) | > 100 µM (inactive) | – | 33 µM (inactive) | > 100 µM (inactive) | > 100 µM (inactive) | > 100 µM (inactive) | > 100 µM (inactive) | > 100 µM (inactive) | > 100 µM (inactive) | > 100 µM (inactive) | > 100 µM (inactive) | > 100 µM (inactive) | > 100 µM (inactive) | – | > 100 µM (inactive) | > 100 µM (inactive) | > 100 µM (inactive) | > 100 µM (inactive) | > 100 µM (inactive) | > 100 µM (inactive)
4 | COc1ccc(/C=C2/S/C(=N\c3ccccc3)N(NC(=O)Cc3ccccc3)C2=O)c(OC)c1 | > 100 µM (inactive) | > 100 µM (inactive) | 3.37 µM (inactive) | 89.9 µM (inactive) | > 100 µM (inactive) | – | > 100 µM (inactive) | > 100 µM (inactive) | > 100 µM (inactive) | > 100 µM (inactive) | > 100 µM (inactive) | > 100 µM (inactive) | > 100 µM (inactive) | > 100 µM (inactive) | > 100 µM (inactive) | > 100 µM (inactive) | > 100 µM (inactive) | > 100 µM (inactive) | > 100 µM (inactive) | > 100 µM (inactive)
5 | O=C(/C=C1\Nc2ccccc2N=C1NC12CC3CC(CC(C3)C1)C2)c1ccc(Br)cc1 | > 10 µM (inactive) | > 10 µM (inactive) | – | > 10 µM (inactive) | > 10 µM (inactive) | > 10 µM (inactive) | > 10 µM (inactive) | > 10 µM (inactive) | > 10 µM (inactive) | > 10 µM (inactive) | > 10 µM (inactive) | > 10 µM (inactive) | > 10 µM (inactive) | > 10 µM (inactive) | > 10 µM (inactive) | > 10 µM (inactive) | > 10 µM (inactive) | > 10 µM (inactive) | > 10 µM (inactive) | > 10 µM (inactive)
6 | CC(C)c1nc(Cl)c(Cl)c(Cl)n1 | 7.69 µM (inactive) | 11.7 µM (inactive) | 3.24 µM (inactive) | 0.286 µM (active) | 5.51 µM (inactive) | 0.608 µM (active) | 12.6 µM (inactive) | 5.78 µM (inactive) | 5.77 µM (inactive) | 2.1 µM (inactive) | 1.31 µM (inactive) | 2.05 µM (inactive) | 14.5 µM (inactive) | 11.2 µM (inactive) | 1.7 µM (inactive) | 1.33 µM (inactive) | 9.2 µM (inactive) | – | 17.7 µM (inactive) | 8.41 µM (inactive)
7 | COc1ccc(C2=Nn3c(C)nnc3S/C2=C\c2ccc(-c3ccc([N+](=O)[O-])cc3)o2)cc1 | 12.2 µM (inactive) | 27.9 µM (inactive) | 22.5 µM (inactive) | 3.55 µM (inactive) | 17.7 µM (inactive) | 30.1 µM (inactive) | 14.9 µM (inactive) | 7.85 µM (inactive) | 18.4 µM (inactive) | 3.62 µM (inactive) | 3.22 µM (inactive) | 9.31 µM (inactive) | 38 µM (inactive) | – | – | 11 µM (inactive) | 5.51 µM (inactive) | 13.3 µM (inactive) | 64.1 µM (inactive) | 12.1 µM (inactive)
